Measurements reported in patent publication US7241791B2, “Substituted 4-(indazol-3-yl)phenols” (Wyeth, priority 2002, dated 2007).

What was measured:
[1] = target: T1, human ERα (Homo sapiens, UniProt P03372); assay: NF-κB luciferase reporter (ER/NF-KB-luc) in Ad5-wt-hERα infected HAECT-1 cells; details: for IC50: ER/NF-KB-luc IC50, Ad5-wt-ER infected HAECT-1 cells, IL-1β; for Emax: HAECT1, read-out: ER/NF-KB-luc % E2, efficacy relative to the maximal inhibition observed with E2
T1 sequence (P03372 1-595): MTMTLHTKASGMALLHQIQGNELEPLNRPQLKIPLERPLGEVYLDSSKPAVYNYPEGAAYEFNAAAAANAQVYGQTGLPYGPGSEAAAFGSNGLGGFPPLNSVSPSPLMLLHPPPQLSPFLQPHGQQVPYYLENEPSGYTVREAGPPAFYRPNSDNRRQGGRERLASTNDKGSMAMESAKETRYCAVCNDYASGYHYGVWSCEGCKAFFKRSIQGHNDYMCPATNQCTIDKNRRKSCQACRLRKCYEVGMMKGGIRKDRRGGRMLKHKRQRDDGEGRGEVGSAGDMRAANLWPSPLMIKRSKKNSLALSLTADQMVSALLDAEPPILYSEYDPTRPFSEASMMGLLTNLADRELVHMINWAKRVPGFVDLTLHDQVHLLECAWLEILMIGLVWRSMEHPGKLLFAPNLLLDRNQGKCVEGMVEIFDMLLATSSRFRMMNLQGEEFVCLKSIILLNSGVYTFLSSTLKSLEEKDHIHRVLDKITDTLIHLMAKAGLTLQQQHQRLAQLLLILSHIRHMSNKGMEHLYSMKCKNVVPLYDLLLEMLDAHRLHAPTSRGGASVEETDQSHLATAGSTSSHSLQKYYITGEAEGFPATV

[2] = target: T1, human ERα; assay: Creatine kinase expression (ER/CK) in Ad5-wt-hERα infected HAECT-1 cells; details: for ER/CK % E2: efficacy relative to the maximal stimulation observed with E2

Row | Structure (SMILES) | IC50 [1] | Emax [1] | EC50 [2] | ER/CK % E2 [2]
1 | C=CCn1nc(-c2ccc(O)cc2)c2cccc(C)c21 [Example 57, 4-(1-allyl-7-methyl-1H-indazol-3-yl)phenol] | 0.045 µM | 89% | 0.205 µM | 45 % E2
2 | CCCCCn1nc(-c2ccc(O)cc2)c2cccc(Cl)c21 [Example 41, 4-(7-chloro-1-pentyl-1H-indazol-3-yl)phenol] | 0.095 µM | 85% | 0.415 µM | 39 % E2
3 | Oc1ccc(-c2n[nH]c3cc(Cl)ccc23)cc1 [Example 134, 4-(6-chloro-1H-indazol-3-yl)phenol] | 0.897 µM | 76% | 1.93 µM | 36 % E2
4 | CCCCCn1nc(-c2ccc(O)cc2O)c2cccc(C(F)(F)F)c21 [Example 73, 4-[1-pentyl-7-(trifluoromethyl)-1H-indazol-3-yl]benzen-1,3-diol] | 0.094 µM | 76% | 0.103 µM | 19 % E2
5 | CC(C)n1nc(-c2ccc(O)cc2O)c2cccc(C(F)(F)F)c21 [Example 65, 4-[1-isopropyl-7-(trifluoromethyl)-1H-indazol-3-yl]benzene-1,3-diol] | 0.041 µM | 86% | 0.218 µM | 42 % E2
6 | Cc1cc(O)ccc1-c1c2cccc(Cl)c2nn1C(C)C [Example 81, 4-(7-chloro-2-isopropyl-2H-indazol-3-yl)-3-methylphenol] | 0.033 µM | 92% | 0.308 µM | 62 % E2
7 | Cn1nc(-c2ccc(O)cc2O)c2cc(F)ccc21 [Example 172, 4-(5-fluoro-1-methyl-1H-indazol-3-yl)benzene-1,3-di] | 0.349 µM | 95% | 1.32 µM | 92 % E2
8 | Cn1nc(-c2ccc(O)cc2O)c2cccc(C(F)(F)F)c21 [Example 167, 4-[1-methyl-7-(trifluoromethyl)-1H-indazol-3-yl]benzene-1,3-diol] | 0.311 µM | 83% | 0.588 µM | 29 % E2
9 | CCCn1nc2c(Cl)cccc2c1-c1ccc(O)cc1C [Example 79, 4-(7-chloro-2-propyl-2H-indazol-3-yl)-3-methylphenol] | 0.092 µM | 93% | 0.734 µM | 52 % E2
10 | CC(C)(C)OC(=O)NCC(=O)NCC(=O)Oc1ccc(-c2nn(C3CCCC3)c3c(F)cccc23)cc1 [Example 116, 4-(1-cyclopentyl-7-fluoro-1H-indazol-3-yl)phenyl N-(tert-butoxycarbonyl)glycylglycinate] | 0.14 µM | 63% | 0.229 µM | 25 % E2
11 | CCCn1nc2c(-c3ccccc3)cccc2c1-c1ccc(O)cc1 [Example 110, 4-(7-phenyl-2-propyl-2H-indazol-3-yl)phenol] | 0.002 µM | 89% | 0.012 µM | 82 % E2
12 | CC(C)n1nc2c(F)cccc2c1-c1ccc(O)cc1 [Example 56, 4-(7-fluoro-2-isopropyl-2H-indazol-3-yl)phenol] | 0.014 µM | 96% | 0.477 µM | 47 % E2
13 | CCC(CC)Cn1nc(-c2ccc(O)cc2O)c2cccc(C(F)(F)F)c21 [Example 69, 4-[1-(2-ethylbutyl)-7-(trifluoromethyl)-1H-indazol-3-yl]benzene-1,3-diol] | 0.235 µM | 68% | 0.704 µM | 32 % E2
14 | CC(C)n1nc(-c2ccc(O)cc2O)c2cccc(F)c21 [Example 87, 4-(7-fluoro-1-isopropyl-1H-indazole-3-yl)benzene-1,3-diol] | 0.347 µM | 77% | 0.188 µM | 24 % E2
15 | CC(C)n1nc2c(Cl)cccc2c1-c1ccc(O)cc1 [Example 46, 4-(7-chloro-2-isopropyl-2H-indazol-3-yl)phenol] | – | 102% | – | 67 % E2
16 | CCCn1nc(-c2ccc(O)cc2)c2cccc(F)c21 [Example 53, 4-(7-fluoro-1-propyl-1H-indazol-3-yl)phenol] | 0.058 µM | 84% | 0.184 µM | 31 % E2

The next lines start with the values.

Row | IC50 [1] | Emax [1] | EC50 [2] | ER/CK % E2 [2] | Structure (SMILES)
17 | 0.112 µM | 84% | 2.34 µM | 48 % E2 | CCCCn1nc(-c2ccc(O)cc2)c2cccc(F)c21 [Example 220, 4-(1-butyl-7-fluoro-1H-indazol-3-yl)phenol]
18 | 0.443 µM | 121% | 2.93 µM | 71 % E2 | Oc1ccc(-c2nn(Cc3ccccc3)c3ccc(C(F)(F)F)cc23)c(O)c1 [Example 182, 4-[1-benzyl-5-(trifluoromethyl)-1H-indazol-3-yl]benzene-1,3-diol]
19 | 0.03 µM | 84% | 0.165 µM | 17 % E2 | Cc1cc(O)ccc1-c1nn(C2CCCC2)c2c(-c3ccco3)cccc12 [Example 263, 4-[1-cyclopentyl-7-(2-furyl)-1H-indazol-3-yl)-3-methylphenol]
20 | 0.751 µM | 90% | 2.45 µM | 31 % E2 | OCCn1nc(-c2ccc(O)cc2)c2cccc(F)c21 [Example 188, 4-[7-fluoro-1-(2-hydroxyethyl)-1H-indazol-3-yl]phenol]
21 | – | 83% | 0.112 µM | – | CC(C)n1nc(-c2ccc(O)cc2)c2cccc(-c3ccccc3)c21 [Example 236, 4-(1-isopropyl-7-phenyl-1H-indazol-3-yl)phenol]
22 | 0.015 µM | 74% | 0.015 µM | 21 % E2 | Cc1cc(O)ccc1-c1nn(C2CCCC2)c2c(-c3ccccc3C)cccc12 [Example 264, 4-[1-cyclopentyl-7-(2-methylphenyl)-1H-indazol-3-yl]-3-methyl-phenol]
23 | 0.382 µM | 78% | 3.25 µM | 32 % E2 | CC(C)n1nc(-c2ccc(O)cc2)c2cccc(-c3ccc(O)c(O)c3)c21 [Example 231, 4-[3-(4-hydroxyphenyl)-1-isopropyl-1H-indazol-7-yl]benzene-1,2-diol]
24 | 0.056 µM | 70% | 0.279 µM | 21 % E2 | CC(C)n1nc(-c2ccc(O)cc2)c2cccc(-c3cccs3)c21 [Example 227, 4-(1-isopropyl-7-thien-2-yl-1H-indazol-3-yl)phenol]
25 | 0.033 µM | 48% | 0.208 µM | 33 % E2 | Oc1ccc(-c2nn(C3CCCC3)c3c(-c4ccco4)cccc23)cc1 [Example 244, 4-[1-cyclopentyl-7-(2-furyl)-1H-indazol-3-yl]phenol]
26 | 0.539 µM | 160% | 1.84 µM | 68 % E2 | Oc1ccc(-c2n[nH]c3ccccc23)cc1O [Example 202, 4-(1H-indazol-3-yl)benzene-1,2-diol]
27 | 0.006 µM | 82% | 0.138 µM | 28 % E2 | Cc1cc(O)ccc1-c1nn(C2CCCC2)c2c(-c3ccccc3)cccc12 [Example 265, 4-(1-cyclopentyl-7-phenyl-1H-indazol-3-yl)-3-methylphenol]
